According to paper PMC4822341 (Cell Discovery, 2015):
Values joined by “and” are separate entries in the source; they are usually repeats but may differ in a detail not shown here. Identical values can stand only once. Each block holds one molecule with its values, some of them ahead of it.

Key:
[1] = tested on: IL-6 release from A549 cells; experiment: Cytokine inhibition assay, IL-6 release from A549 cells; format: cell-based; conditions: Homo sapiens, TNFα 2 ng ml^-1, read-out: IC50 (suppression of IL-6 release)
Description: A549 cells into 24-well plates were split at 40 000 cells/well. After 1 day growth, cells were treated with various steroids 1 h before overnight induction of inflammation by 2 ng ml^–1 TNFα according to literature. Sixteen hours after treatment, cell culture supernatants were subjected to anti-IL-6 Elisa (R&D Quantikine Elisa Human IL-6 Kit) according to the manual.

[2] = tested on: OVA-induced asthma; experiment: OVA-induced mouse asthma model; format: in vivo, Balb/c mice; conditions: for repression of airway hyper-responsiveness (AHR): Balb/c mice; for % repression of AHR: ACH challenge 4 mg kg^-1
Description: As described before, 7–9-week-old female Balb/c mice (Taconic) were sensitized on days 0, 7 and 14 by i.p. injection of 50 μg OVA/1 mg alum in a total of 200 μl saline. Control mice received an equal volume of alum only. Mice were lightly anesthetized by isoflurane inhalation and challenged with intranasal OVA (100 μg in 30 μl saline) or saline on days 21–23, and were i.p. injected with different steroids. Twenty-four hours after the last challenge and treatment, pulmonary resistance was measured in response to a range of concentrations of intravenous acetylcholine using the forced oscillation technique with the FlexiVent system (SCIREQ) as previously described. Serum samples were analyzed for OVA-specific IgE using an ELISA (BD Biosciences, clone R35-118). Total and differential cell counts were determined by hemocytometer and by light microscopic evaluation of more than 300 cells per slide as previously described. After lavage, lungs were inflated with 10% buffered formalin to 25 cm H2O and transferred to 10% buffered formalin. Sections (5 μm) were stained with H&E for semi-quantitative assessment of inflammation and PAS for evaluation of mucus production. To quantify inflammation, H&E-stained lung sections were de-identified for blinding and scored for peribronchial and perivascular inflammatory cell infiltration: grade 0, no infiltration; grade 1, <25% of examined area; grade 2, 25–50%; grade 3, 51–75%; and grade 4, >75%. To quantify goblet cell hyperplasia, PAS stained lung sections were de-identified for blinding and scored for the percentage of PAS positive cells among airway epithelial cells: grade 0: none; grade 1 <25% of airway epithelial cells; grade 2, 25–50%; grade 3, 51–75%; and grade 4, >75%.

[3] = tested on: RAW264.7 cells; experiment: Gene expression (microarray and quantitative PCR) in LPS-stimulated RAW264.7 cells; format: cell-based, mouse; conditions: RAW264.7, LPS, steroid 100 nM
Description: Mouse macrophage RAW264.7 cells were grown in 6-well plates to reach 80% confluence. The cells were pretreated with different steroids at 100 nM 1 h before overnight induction of inflammation by 1 μg ml^–1 LPS. Total RNA was isolated using a Qiagen mini RNA extraction kit (Valencia, CA, USA). Complementary DNA was synthesized from total RNA with an Invitrogen Superscript cDNA synthesis kit (Carlsbad, CA, USA). Target genes were quantified with a Power SYBR Green Real-Time PCR kit (Carlsbad, CA, USA) (ABI) in a StepOnePlus real-time PCR instrument (Applied Biosystems, Carlsbad, CA, USA). In every case, GAPDH (glyceraldehyde-3-phosphate dehydrogenase) was used as an internal control and data were analyzed by the ΔΔCt method. The specificity of target primers was tested both in a dissociation (melting) curve (Supplementary Figure S4) and against a water control. Primer sequence information is included in Supplementary Figure S4.
RAW264.7 cells were treated with designated steroids at 100 nM 1 h before overnight LPS stimulation of inflammation. Each treatment was duplicated. The following day, RNA samples were isolated using a Qiagen mini RNA extraction kit and applied to the Agilent Whole Mouse Genome 8x60K gene expression platform. Data were analyzed by the limma package in R program. Heat maps were generated by the HeatMap 2 package. Pathway analysis was done via DAVID Bioinformatics Resources 6.7 (NIAID) and Venn diagrams were generated by BioVenn.

[4] = Body weight (growth inhibition) of DBA/1 mice; format: in vivo; conditions: 1 mg kg^-1 daily i.p., 2 weeks, 7-week-old mice
Description: (§1) Figure 5 Examination of side effects of VSGC12 and FF at the effective dose. (a) Body weight of DBA/1 mice treated with the indicated daily dose of steroids for 2 weeks. Mice body weight was measured at day 0, 7 and 14. (b) Insulin-tolerance test of mice treated with the indicated daily doses of steroids for 7 days. Glucose level was measured at day 7 at various time points before and after insulin injection. Data were plotted as percent of the glucose level of time 0. (c) Plasma insulin levels of mice treated with the indicated daily doses of steroid for 7 days. (d) Spleen size and weight for mice treated with the indicated daily doses of steroid for 2 weeks. (e) Cortical bone thickness of femurs of mice treated with the indicated daily doses of steroid for 2 weeks. (f) Bone stiffness of femurs of mice treated with the indicated daily doses of steroid for 2 weeks. Mouse strain: DBA/1. Each treatment n=5, error bars indicate s.e.m., *P<0.05; **P<0.01; ***P<0.001.

[5] = Spleen size and weight (spleen atrophy); format: in vivo, DBA/1 mice; conditions: 1 mg kg^-1 daily, 2 weeks
Description: as §1

[6] = Bone density (μCT) and biomechanics testing of femurs; format: in vivo, DBA/1 mice; conditions: 1 mg kg^-1 daily, 2 weeks
Description: Femur bones were collected and scanned by μCT (Skyscan 1172 uCT) for quantification of trabecular and cortical bone parameters. The thresholds for μCT quantification of trabecular and cortical bone parameters were set at 80–100 and 100–110, respectively. μCT analyses of cortical bone parameters were performed on 100-μCT slices (1 mm total) from the middle shaft of femurs; trabecular parameters were assessed in 100-μCT slices (1 mm total) immediately below the distal growth plate of the femur. Following uCT scans, the femurs were individually tested on a TestResources 570 Force Transducer. Bones were thawed in PBS before being tested, to ensure no brittleness was due to freezing. […] Data points were collected at a frequency of 50 Hz and a deflection rate of 0.005 mm s^–1.

[7] = Insulin-tolerance test and plasma insulin level; conditions: 1 mg kg^-1 daily, 7 days
Description: DBA/1 mice (Taconic) were weighted just before the experiment. After 4 h fasting, mice were i.p. injected with 0.75 U kg^–1 of insulin (Huamlin R). Blood samples were taken from the tail at time 0 (before insulin injection), 15, 30, 45, 60, 90 and 120 min after injection. Plasma glucose levels were measured using an AlphaTrak glucose meter. All data were plotted as percent of glucose level at time 0. Endogenous insulin levels were measured using the Ultra Sensitive Mouse Insulin ELISA kit (Crystal Chem, Downers Groove, IL, USA).

[8] = tested on: granulocyte macrophage colony-stimulating factor release; parameters: method as in PMID 10433509; conditions: A549 cells; read-out: IC50 to inhibit granulocyte macrophage colony-stimulating factor release; cited from earlier work
[9] = molecular target: β2-adrenergic receptor induction; parameters: method as in PMID 10433509; conditions: A549 cells; cited from earlier work
[10] = molecular target: T1, GR (Homo sapiens, UniProt P04150); experiment: MMTV-Luc induction reporter assay in AD293 cells; format: cell-based; conditions: 16 h
T1 construct: expressed in transfected cells; host or cells: AD293
T1 sequence (P04150 1-777): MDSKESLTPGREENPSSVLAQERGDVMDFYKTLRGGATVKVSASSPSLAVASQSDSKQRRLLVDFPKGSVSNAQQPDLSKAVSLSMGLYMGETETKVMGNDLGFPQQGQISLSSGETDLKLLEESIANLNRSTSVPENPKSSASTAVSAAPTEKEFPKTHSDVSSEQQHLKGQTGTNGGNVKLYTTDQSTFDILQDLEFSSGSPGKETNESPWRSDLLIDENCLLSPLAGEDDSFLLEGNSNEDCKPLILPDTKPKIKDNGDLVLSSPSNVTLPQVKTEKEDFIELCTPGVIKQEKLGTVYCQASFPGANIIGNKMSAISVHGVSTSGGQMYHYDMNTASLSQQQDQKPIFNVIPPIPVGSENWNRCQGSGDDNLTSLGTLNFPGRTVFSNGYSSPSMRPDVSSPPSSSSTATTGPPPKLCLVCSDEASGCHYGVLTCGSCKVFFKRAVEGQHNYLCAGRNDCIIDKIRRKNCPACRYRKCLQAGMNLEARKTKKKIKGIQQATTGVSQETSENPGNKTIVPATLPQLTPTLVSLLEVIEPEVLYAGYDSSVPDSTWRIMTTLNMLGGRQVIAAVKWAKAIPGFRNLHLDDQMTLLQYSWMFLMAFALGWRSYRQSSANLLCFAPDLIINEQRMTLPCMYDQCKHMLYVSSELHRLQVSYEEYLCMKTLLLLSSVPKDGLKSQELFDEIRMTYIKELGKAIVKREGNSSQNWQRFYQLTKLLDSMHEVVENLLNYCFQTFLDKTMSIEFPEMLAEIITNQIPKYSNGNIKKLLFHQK
Description: (§2) Similar to previous reports, for induction 100 ng pHHLuc (MMTV-Luc) plasmid, 0.1 ng pRShGR together with 5 ng phRGtkRenilla were transfected by X-tremeGENE 9 (Roche) into AD293 cells per well in 24-well plate. For transrepression, 10 ng AP-1-Luc or 10ng pNF-κB-luc, 100 ng pRShGR and 5 ng phRGtkRenilla were transfected into AD293 cells per well. We used the same transfection protocol for the MR and PR assays, except of the use of 0.1 ng MR or PR plasmid to substitute GR. One day after transfection, for induction, cells were directly treated by steroids for 16 h; for repression, cells were treated with either PMA at 0.6 ng ml^–1 (for AP-1 reporter) or TNFα at 2 ng ml^–1 (for NF-κB reporter), together with various steroids. Cells were collected by addition of 1× Passive Lysis Buffer (Promega, Madison, WI, USA), and luciferase activity was assayed by the Dual-Glo Luciferase system (Promega). Data were plotted as firefly luciferase activity normalized to Renilla luciferase activity in Relative Luciferase Units.

[11] = molecular target: T1, GR; experiment: AP-1-Luc repression reporter assay in AD293 cells; format: cell-based; conditions: AP-1 reporter, PMA 0.6 ng ml^-1
Description: as §2

[12] = molecular target: T1, GR; experiment: NF-κB-Luc repression reporter assay in AD293 cells; format: cell-based; conditions: TNFα 2 ng ml^-1
Description: as §2
Error bars indicate SD, n=3.

[13] = molecular target: T1, GR; experiment: In vitro H3-Dex competition GR ligand-binding assay; conditions: H3-DEX 15 nM, GR cytosol
Text: The in vitro GR binding assay is similar to the one described previously. […] Data were plotted as a standard competition curve by GraphPad Prism 5.

[14] = molecular target: T1, GR; conditions: cited from earlier work

IC50 [1]: 0.8 nM
SMILES: C[C@@H]1C[C@H]2[C@@H]3CCC4=CC(=O)C=C[C@]4(C)[C@@]3(F)[C@@H](O)C[C@]2(C)[C@@]1(O)C(=O)CO [DEX, dexamethasone, reference compound]
infiltration of immune responsive cells into the lungs (total and differential cell count) ([2]; 1 mg kg^-1 i.p.): only a mild effect
repression of airway hyper-responsiveness (AHR) ([2]; 1 mg kg^-1 i.p.): neither VSG22 nor DEX can effectively repress the airway hyper-responsiveness

IC50 [1]: 0.03 nM
atrophy of the spleen [5]: dramatic shrinkage of the spleen
SMILES: C[C@@H]1C[C@H]2[C@@H]3C[C@H](F)C4=CC(=O)C=C[C@]4(C)[C@@]3(F)[C@@H](O)C[C@]2(C)[C@@]1(OC(=O)c1ccco1)C(=O)SCF [FF, fluticasone furoate, reference compound]
inhibition activity of pro-inflammatory cytokines (microarray, normalized to DEX) [3]: much stronger inhibition activity than DEX
% repression of total differentiated cells ([2]; 0.125 mg/kg): 14%
% repression of AHR ([2]; 0.125 mg/kg): < 28% and 28%
% repression of total differentiated cells ([2]; 0.25 mg/kg): 30%
% repression of AHR ([2]; 0.25 mg/kg): < 35% and 34%
infiltration of immune responsive cells into the lungs (total and differential cell count) ([2]; 1 mg kg^-1 i.p.): strongly repressed the infiltration of immune responsive cells into the lungs
repression of airway hyper-responsiveness (AHR) ([2]; 1 mg kg^-1 i.p.): strongly suppress the AHR to the basal level
histology score, PAS staining ([2]; 1 mg kg^-1 i.p., grade 0-4): 1.5
histology score, hematoxylin and eosin staining ([2]; 1 mg kg^-1 i.p., grade 0-4): 0.83
% repression of AHR ([2]; 1 mg/kg, OVA+DMSO 0, saline 100): 95%
% repression of total differentiated cells ([2]; 1 mg/kg, saline 100, OVA+DMSO 0): 94%
minimal dose to maximally repress the inflammation (maximal effective dose) ([2]; judged from AHR, i.p.): 1 mg kg^–1
OVA-IgE levels ([2]; lower doses (0.25, 0.125, 0.0625 mg kg^-1)): unexpectedly higher than the vehicle control
growth inhibition (body weight) [4]: significant growth inhibition
bone strength (stiffness) of femurs [6]: dramatic decrease of bone strength in terms of stiffness
cortical bone thickness of femurs ([6]; μCT): dramatic decrease of the cortical bone thickness
insulin resistance in insulin-tolerance test [7]: hyper-insulin resistance
plasma (endogenous) insulin level [7]: dramatic increase of the endogenous insulin level

SMILES: CCC(=O)O[C@]1(C(=O)SCF)[C@H](C)C[C@H]2[C@@H]3C[C@H](F)C4=CC(=O)C=C[C@]4(C)[C@@]3(F)[C@@H](O)C[C@@]21C [FP, fluticasone propionate]
IC50 [8]: 0.018 nM
EC50 [9]: 1.1 nM

SMILES: CON(C)C(=O)C1(OC(=O)c2ccco2)CCC2C3CCC4=Cc5c(cnn5-c5ccccc5)CC4(C)C3C(O)CC21C (stereo not drawn) [VSG22]
EC50 [10]: 0.74 nM
IC50 [11]: 0.04 nM
IC50 [12]: 0.1 nM
IC50 [13]: 4.1 nM
IC50 [1]: 0.07 nM
inhibition activity of pro-inflammatory cytokines (microarray, normalized to DEX) [3]: much stronger inhibition activity than DEX
repression of airway hyper-responsiveness (AHR) ([2]; 1 mg kg^-1 i.p.): neither VSG22 nor DEX can effectively repress the airway hyper-responsiveness
increase in potency relative to the original backbone VSG24 [14]: more than 1 000 fold
